# From patent US8258128B2, “Organic compounds” (Novartis AG, priority 2006, dated 2012)
# “Also recorded” adds a separate entry of the source. Marks after values point to notes of the source that are not given here.
# Test system: collagen-induced arthritis in the rats
# Experiment: Collagen-induced arthritis in the rats, hind paw swelling
# Format: in vivo, rat
# Text: Animal models of RA need to reflect at least some of the features found in human RA (Billingham et al., 1979). Collagen-induced arthritis (CIA) has been proposed to meet these requirements (Durie et al., 1994). Especially the similarity in the joint pathophysiology makes this animal model most attractive for the evaluation of anti-rheumatic drugs (Takeshita et al., 1997). Synovial hyperplasia, which is an integral part of the disease, parallels the migration of leukocytes into the joint space; erosion and destruction of the cartilage surface can also be found (Holmdahl et al., 1985). The rat CIA, originally described by Trentham et al. (1977), was established and extensive studies with CsA were done, including three-dimensional magnetic resonance imaging (MRI) and histology (Beckmann et al., 1995; 1998). Differences in the susceptibility of several rat strains for the development of the disease have been reported (Cremer et al., 1995; Kamada et al., 1997; Knoerzer et al., 1997).
# Method: For this study, COMPOUND A and COX-inhibitor Diclofenac are dissolved in a solvent containing 5% of glucose (5 ml/kg). Compounds are given orally once a day. Female rats of the WAGxBUF/F1 crossbred strain (weight 130 g) are used. The animals are divided into several groups, one placebo group (N=8), and four treatment groups (each N=7-8). Treatment starts on peak of disease (day 0) and continues for 11 days. Swelling is assessed at regular time intervals by measuring the external thickness of the hind paws in the region of the metatarsals using a micro-caliper. Tissue samples for histological evaluation are obtained at the end of the in vivo experiment, 5 h after the last oral dose of COMPOUND A or placebo on day 11.
# Results shown are means±SEM of groups of each 4-8 animals of paw diameters in mm on day-12 (before the immunization with Type II collagen in incomplete Freund's adjuvant), day 0 (start of treatment) and day 11 (end of treatment).
# The data shown represent the ability of the treatment (COMPOUND A at 4 different increasing doses) to reduce the volume of the hind paw measured at day 2, day 7 and day 11.
smiles,measurement,setting,value
"COC1=Nc2cc(Cl)ccc2/C(=C/C(=O)O)c2sc(Cl)cc21 [COMPOUND A, [2,7-Dichloro-10-methoxy-3-thia-9-aza-benzo[f]azulen-(4Z)-ylidene]-acetic acid]","hind paw diameter, mean ± SEM","0.3 mg/kg group, Day 0 (start of treatment)",5.406 ± 0.448 mm
same,"hind paw diameter, mean ± SEM","0.3 mg/kg group, Day −12 (before immunization)",3.069 ± 0.016 mm
same,"median inhibition of swelling, analysis of the AUC during day 0 to 11",0.3 mg/kg per day p.o.,29±9.2%
same,Effect on hind paw swelling,"0.3 mg/kg per day p.o., Day 0-11 (AUC)",−29 ± 9.2%
same,Effect on hind paw swelling,"0.3 mg/kg per day p.o., Day 2",−33% **
same,Effect on hind paw swelling,"0.3 mg/kg per day p.o., Day 7",−31% *
same,Effect on hind paw swelling,"0.3 mg/kg per day p.o., Day 11",−20%
same,"hind paw diameter, mean ± SEM","0.3 mg/kg per day p.o., Day 11 (end of treatment)",4.417 ± 0.079 mm
same,"hind paw diameter, mean ± SEM","1 mg/kg group, Day 0 (start of treatment)",5.350 ± 0.344 mm
same,"hind paw diameter, mean ± SEM","1 mg/kg group, Day −12 (before immunization)",3.107 ± 0.046 mm
same,"median inhibition of swelling, analysis of the AUC during day 0 to 11",1 mg/kg per day p.o.,37±6.8%
same,Effect on hind paw swelling,"1 mg/kg per day p.o., Day 0-11 (AUC)",−37 ± 6.8%
same,Effect on hind paw swelling,"1 mg/kg per day p.o., Day 2",−40% **
same,Effect on hind paw swelling,"1 mg/kg per day p.o., Day 7",−38% **
same,Effect on hind paw swelling,"1 mg/kg per day p.o., Day 11",−47% ***
same,"hind paw diameter, mean ± SEM","1 mg/kg per day p.o., Day 11 (end of treatment)",3.983 ± 0.064 mm
same,"hind paw diameter, mean ± SEM","3 mg/kg group, Day 0 (start of treatment)",5.379 ± 0.224 mm
same,"hind paw diameter, mean ± SEM","3 mg/kg group, Day −12 (before immunization)",3.136 ± 0.026 mm
same,"median inhibition of swelling, analysis of the AUC during day 0 to 11",3 mg/kg per day p.o.,51±7.1%
same,Effect on hind paw swelling,"3 mg/kg per day p.o., Day 0-11 (AUC)",−51 ± 7.1%
same,Effect on hind paw swelling,"3 mg/kg per day p.o., Day 2",−59% ***
same,Effect on hind paw swelling,"3 mg/kg per day p.o., Day 7",−47% ***
same,Effect on hind paw swelling,"3 mg/kg per day p.o., Day 11",−71% ***
same,"hind paw diameter, mean ± SEM","3 mg/kg per day p.o., Day 11 (end of treatment)",3.592 ± 0.085 mm
same,"hind paw diameter, mean ± SEM","9 mg/kg group, Day 0 (start of treatment)",5.364 ± 0.231 mm
same,"hind paw diameter, mean ± SEM","9 mg/kg group, Day −12 (before immunization)",3.043 ± 0.028 mm
same,"median inhibition of swelling, analysis of the AUC during day 0 to 11",9 mg/kg per day p.o.,67±5.4%
same,Effect on hind paw swelling,"9 mg/kg per day p.o., Day 0-11 (AUC)",−67 ± 5.4%
same,Effect on hind paw swelling,"9 mg/kg per day p.o., Day 2",−69% ***
same,Effect on hind paw swelling,"9 mg/kg per day p.o., Day 7",−75% ***
same,Effect on hind paw swelling,"9 mg/kg per day p.o., Day 11",−90% ***
same,"hind paw diameter, mean ± SEM","9 mg/kg per day p.o., Day 11 (end of treatment)",3.275 ± 0.038 mm
same,detrimental effect on body weight gain,"0.3 to 9 mg/kg per day p.o., 11 days",not observed; also recorded: does not interfere with body weight gain
